Results as given in patent US7652018B2, “Imidazolidin-2-one derivatives useful as PR modulators” (Wyeth LLC, priority 2006, dated 2010).

biological target: T1, progesterone receptor (Homo sapiens, UniProt P06401); test: Alkaline phosphatase activity in T47D cells (progestin antagonist mode); assay type: cell-based; conditions: in the presence of 1 nM progesterone, 24 h, read-out: T47D Alkaline Phosphatase Activity IC50 (nM) or % inhibition
T1 construct: determining a compound's effect on alkaline phosphatase activity in T47D cells; endogenous in cells; host or cells: T47D cells
T1 sequence (P06401 1-933): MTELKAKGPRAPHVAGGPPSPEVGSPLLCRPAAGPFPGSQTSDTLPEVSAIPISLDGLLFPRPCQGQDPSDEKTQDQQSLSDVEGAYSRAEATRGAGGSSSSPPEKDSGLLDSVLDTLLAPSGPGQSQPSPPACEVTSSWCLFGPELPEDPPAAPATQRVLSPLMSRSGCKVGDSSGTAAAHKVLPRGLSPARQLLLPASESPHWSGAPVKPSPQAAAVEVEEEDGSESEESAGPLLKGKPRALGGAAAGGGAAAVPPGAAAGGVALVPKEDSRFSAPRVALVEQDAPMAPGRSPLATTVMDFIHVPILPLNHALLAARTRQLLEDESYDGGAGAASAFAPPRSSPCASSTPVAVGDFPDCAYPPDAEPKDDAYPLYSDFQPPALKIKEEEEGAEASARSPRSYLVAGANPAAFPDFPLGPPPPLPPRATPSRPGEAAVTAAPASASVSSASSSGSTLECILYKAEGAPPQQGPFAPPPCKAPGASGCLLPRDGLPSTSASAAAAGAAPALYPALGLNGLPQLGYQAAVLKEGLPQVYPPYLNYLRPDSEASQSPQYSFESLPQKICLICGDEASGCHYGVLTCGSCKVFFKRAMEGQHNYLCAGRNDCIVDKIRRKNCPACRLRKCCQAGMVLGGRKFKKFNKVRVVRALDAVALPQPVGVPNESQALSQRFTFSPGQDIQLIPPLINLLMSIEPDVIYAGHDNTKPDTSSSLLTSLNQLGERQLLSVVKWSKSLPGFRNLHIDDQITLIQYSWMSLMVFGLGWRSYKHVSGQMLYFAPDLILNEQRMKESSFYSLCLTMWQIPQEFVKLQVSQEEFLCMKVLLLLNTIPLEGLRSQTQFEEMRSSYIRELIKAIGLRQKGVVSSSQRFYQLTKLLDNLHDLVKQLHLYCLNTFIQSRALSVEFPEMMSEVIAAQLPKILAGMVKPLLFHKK
Protocol: (1) Effects of Progestins and Antiprogestins on Alkaline Phosphatase Activity in T47D Cells
PURPOSE: To identify progestins or antiprogestins by determining a compound's effect on alkaline phosphatase activity in T47D cells.
Culture medium: • DMEM:F12 (1:1) (GIBCO, BRL) supplemented with 5% (v/v) charcoal stripped fetal bovine serum (not heat-inactivated), 100 U/mL penicillin, 100 μg/mL streptomycin, and 2 mM the GlutaMax™ reagent (GIBCO, BRL).
Alkaline phosphatase assay buffer: • I. 0.1M Tris-HCl, pH 9.8, containing 0.2% the Triton® X-100 reagent • II. 0.1M Tris-HCl, pH 9.8, containing 4 mM p-nitrophenyl phosphate (Sigma). B. Cell Culture and Treatment:
Frozen T47D cells were thawed in a 37° C. water bath and diluted to 280,000 cells/mL in culture medium. To each well in a 96-well plate (Falcon, Becton Dickinson Labware), 180 μL of diluted cell suspension was added.
Twenty μL of reference or test compounds diluted in the culture medium was then added to each well. When testing for progestin antagonist activity, reference antiprogestins or test compounds were added in the presence of 1 nM progesterone. The cells were incubated at 37° C. in a 5% CO2/humidified atmosphere for 24 h.
NOTE: For high throughput screening, one concentration of each compound was tested at 0.3 μg/mL. Based on an average molecular weight of 300 g/mol for the compounds in the library, the concentration was approximately 1 μM. Subsequently, active compounds were tested in dose response assays to determine EC50 and IC50. C. Alkaline Phosphatase Enzyme Assay:
At the end of treatment, the medium was removed from the plate. Fifty μL of assay buffer I was added to each well. The plates were shaken in a titer plate shaker for 15 min. Then 150 μL of assay buffer II was added to each well. Optical density measurements were taken at 5 min intervals for 30 min at a test wavelength of 405 nm.
For reference and test compounds, a dose response curve was generated for dose (X-axis) vs. the rate of enzyme reaction (slope) (Y-axis). Square root-transformed data was used for analysis of variance and nonlinear dose response curve fitting for both agonist and antagonist modes. Huber weighting was used to down-weight the effects of outliers. EC50 or IC50 values were calculated from the retransformed values. JMP software (SAS Institute, Inc.) was used for both one-way analysis of variance and non-linear dose response analysis in both single dose and dose response studies.
Progesterone and trimegestone were reference progestins and RU486 was the reference antiprogestin. All reference compounds were run in full dose response curves and the EC50 and IC50 values were calculated.

IC50 [nM]	Structure (SMILES)
733	CN1CCN(c2nc(-c3ccc(Br)cc3)cs2)C1=O [Example 5, 1-[4-(4-Bromophenyl)-1,3-thiazol-2-yl]-3-methylimidazolidin-2-one]
77.9	CC1(C)CN(Cc2ccccc2)C(=O)N1c1nc(-c2ccc(C#N)cc2)cs1 [Example 9, 4-[2-(3-Benzyl-5,5-dimethyl-2-oxoimidazolidin-1-yl)-1,3-thiazol-4-yl]benzonitrile]
1070	O=C1NCCN1c1nc(-c2ccc(Br)cc2)cs1 [Example 4, 1-[4-(4-Bromophenyl)-1,3-thiazol-2-yl]imidazolidin-2-one]
35.4	CN1CC(C)(C)N(c2nc(-c3ccc(C#N)cc3)cs2)C1=O [Example 8, 4-[2-(3,5,5-Trimethyl-2-oxoimidazolidin-1-yl)-1,3-thiazol-4-yl]benzonitrile]

tested on: not given; test: not given; conditions: not given

melting point [°C]	Structure (SMILES)
197 to 199	C[C@@H]1COC(=O)N1c1nc(-c2ccc(Br)cc2)cs1 [Example 1, (4R)-3-[4-(4-Bromophenyl)-1,3-thiazol-2-yl]-4-methyl-1,3-oxazolidin-2-one]
145 to 147	CCC1(CC)COC(=O)N1c1nc(-c2ccc(C#N)cc2)cs1 [Example 2, 4-[2-(4,4-Diethyl-2-oxo-1,3-oxazolidin-3-yl)-1,3-thiazol-4-yl]benzonitrile]
230 to 233	O=C1NCCN1c1nc(-c2ccc(Br)cc2)cs1 [Example 4, 1-[4-(4-Bromophenyl)-1,3-thiazol-2-yl]imidazolidin-2-one]
181 to 183	CC1(C)COC(=O)N1c1nc(-c2cccc(C#N)c2)cs1 [Example 3, 3-[2-(4,4-dimethyl-2-oxo-1,3-oxazolidin-3-yl)-1,3-thiazol-4-yl]benzonitrile]
